Usually GI50 stands for the concentration giving 50% growth inhibition.

This note sets out measurements from paper PMC12670405, “Second-Generation AURKA-Targeting PROTACs: Structural Optimization toward in Vivo Degradation in Neuroblastoma” (Journal of Medicinal Chemistry, 2025).

Where two headings read alike, the source gives them in different places.

For assay [1], the system named is IMR-32. The experiment in a line: IncuCyte live-cell imaging, antiproliferative effect. The format is cell-based. Particulars: Homo sapiens, IMR-32, 72 h, read-out: Cell GI50 72h, IMR-32. Summed up:
(§1)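 Cells seeded in 384-well plates (neuroblastoma 1200–5000, HEK293T 600 cells/well), adhered overnight, then compound-treated in duplicate or triplicate; confluency tracked by IncuCyte live-cell imaging. Normalized confluence averaged from 3 experiments; absolute GI50 interpolated from four-parameter variable-slope curves.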

Assay [2] addresses 403 nonmutant kinases. Briefly: KINOMEscan scanMAX kinome-wide binding scan, interactions mapped. Conditions: for Interactions mapped: total = 403 non-mutant kinases, threshold < 35% of control. The protocol:
The kinome-wide binding assay was performed by Eurofins Discovery using the scanMAX screening platform. More information can be found on the Eurofins Discovery Web site.

Assay [3] has as its system SMTN. The experiment in a line: LC-MS/MS proteome profiling. The assay is classed as cell-based, Homo sapiens. Conditions: SK5527 vs DMSO (24h). The protocol:
(§2) Analysis of the mass spectrometry data was performed in DiaNN (version 1.9). Precursor false discovery rate was set at 1%. Spectra were searched against the Homo sapiens protein sequences in the Uniprot database (database release version of 2024_01), containing 20,597 sequences (www.uniprot.org) and the imbedded protein contaminant list. Enzyme specificity was set as C-terminal to arginine and lysine, also allowing cleavage at proline bonds with a maximum of 2 missed cleavages. Variable modifications were set to oxidation of methionine residues and acetylation of protein N-termini while fixed modification was set to carbamidomethylation of cystein residues. Matching between runs was enabled. Mainly default settings were used, except for the addition of a 400-900 m/z precursor mass range filter and MS1 and MS2 mass tolerance was set to 10 and 20 ppm respectively.
(§3) Further data analysis of the results was performed with an in-house script in the R programming language.
(§4) Protein expression matrices were prepared as follows: the DIA-NN main report output table was filtered at a precursor and protein library q-value cut-off of 1 % and only proteins identified by at least one proteotypic peptide were retained. After pivoting into a wide format, iBAQ intensity columns were then added to the matrix using the DIAgui’s R package get_IBAQ function. PG MaxLFQ intensities were log2 transformed and replicate samples were grouped. Proteins with less than 3 valid values in at least one group were removed and missing values were imputed from a normal distribution centered around the detection limit (package DEP) leading to a list of 7,759 quantified proteins in the experiment, used for further data analysis. To compare protein abundance […]
(§5) 24h MK-5108 vs 24h DMSO sample groups), statistical testing for differences between two group means was performed, using the package limma. Statistical significance for differential regulation was set to a false discovery rate (FDR) of < 0.05 and |log2FC| = 2.

In assay [4] the test system is SRSF10. The experiment in a line: LC-MS/MS proteome profiling. The assay is classed as cell-based, Homo sapiens. Particulars: SK5527 vs DMSO (24h). The protocol:
as §2, §3, §4, §5

Assay [5] deals with ABCA3. Briefly: LC-MS/MS proteome profiling. The assay is classed as cell-based, Homo sapiens. Particulars: SK5527 vs DMSO (24h). Here is the method: as §2, §3, §4, §5
Assay [6] relates to ZNF7. Briefly: LC-MS/MS proteome profiling. The format is cell-based, Homo sapiens. Conditions: SK5527 vs DMSO (24h). Here is the method:
as §2, §3, §4, §5

In assay [7] the test system is RSF1. Briefly: LC-MS/MS proteome profiling. The format is cell-based, Homo sapiens. Conditions: SK5527 vs DMSO (24h). Here is the method:
as §2, §3, §4, §5

Assay [8] has as its system ARHGEF18. The experiment in a line: LC-MS/MS proteome profiling. Particulars: SK5527 vs DMSO (24h). The assay is classed as cell-based, Homo sapiens. The protocol:
as §2, §3, §4, §5

For assay [9], the system named is JMJD1C. Briefly: LC-MS/MS proteome profiling. Particulars: SK5527 vs DMSO (24h). The assay is classed as cell-based, Homo sapiens. Here is the method:
as §2, §3, §4, §5

Assay [10] deals with SP2. Briefly: LC-MS/MS proteome profiling. The assay is classed as cell-based, Homo sapiens. Conditions: SK5527 vs DMSO (24h). Here is the method:
as §2, §3, §4, §5

Assay [11] has as its system SIPA1L3. The experiment in a line: LC-MS/MS proteome profiling. The format is cell-based, Homo sapiens. Particulars: SK5527 vs DMSO (24h). The protocol: as §2, §3, §4, §5
Assay [12] has as its system ZNF337. The experiment in a line: LC-MS/MS proteome profiling. The assay is classed as cell-based, Homo sapiens. Conditions: SK5527 vs DMSO (24h). The protocol:
as §2, §3, §4, §5

Assay [13] concerns PLCXD1. The experiment in a line: LC-MS/MS proteome profiling. The assay is classed as cell-based, Homo sapiens. Particulars: SK5527 vs DMSO (24h). The protocol: as §2, §3, §4, §5
In assay [14] the test system is TROAP. The experiment in a line: LC-MS/MS proteome profiling. The format is cell-based, Homo sapiens. Particulars: SK5527 vs DMSO. Here is the method:
as §2, §3, §4, §5

Assay [15] concerns ZSCAN22. Briefly: LC-MS/MS proteome profiling. The assay is classed as cell-based, Homo sapiens. Conditions: SK5527 vs DMSO. Here is the method:
as §2, §3, §4, §5

For assay [16], the system named is HAND2. The experiment in a line: LC-MS/MS proteome profiling. The format is cell-based, Homo sapiens. Particulars: SK5527 vs DMSO (24h). The protocol: as §2, §3, §4, §5
Assay [17] concerns HEK293T. The experiment in a line: IncuCyte live-cell imaging, antiproliferative effect. Particulars: Homo sapiens, HEK-293T. The format is cell-based. Summed up:
as §1

For the compound `O=C1CCC(N2C(=O)c3cccc(OCCOCCOCCOCCNC(=O)[C@]4(Cc5cccc(Nc6nccs6)n5)CC[C@@H](Oc5cccc(Cl)c5F)CC4)c3C2=O)C(=O)N1` (stereo partly drawn) [SK2188, reference compound], the GI50 in assay [1] turned out to be 10 nM.
Turning to `Cc1cc(Nc2ccc(F)c(CC3(C(=O)N4CCC(F)(CN5CCN(c6ccc(N7CCC(=O)NC7=O)cn6)CC5)CC4)CCN(Cc4cccc(Cl)c4F)CC3)n2)n[nH]1` [SK5527], in [2] (100 nM), the “kinases significantly engaged (in words)” value is “only AURKA and TrKA”. Further, the Interactions mapped is 2 in [2] (100nM) and 10 in assay [2] (1000nM). The “nonmutant kinases bound in addition to AURKA, out of 403” value in assay [2] (1000 nM) was found to be 9. The “logFC SMTN” value in assay [3] was determined as 2.05. For the same compound, in assay [4], the “logFC SRSF10” value turned out to be 2.01. Further, the “logFC ABCA3” value in assay [5] is listed as -4.59. The “logFC ZNF7” value in [6] was -2.38. Besides, in [7], the “logFC RSF1” value was 2.45. The “logFC ARHGEF18” value in assay [8] was -5.19. The “logFC JMJD1C” value in assay [9] turned out to be 2.49. Also, the “logFC SP2” value in assay [10] is recorded as -2.23. In assay [11], the “logFC SIPA1L3” value is reported as -3.26. Also, the “logFC ZNF337” value in assay [12] is 2.22. For the same compound, the “logFC PLCXD1” value in [13] was -2.06. Also, in assay [14], the “logFC TROAP” value came to 2.33. In addition, the “logFC ZSCAN22” value in [15] was -2.09. In [16], the “logFC HAND2” value is given as -3.26. For the same compound, the GI50 was 408 nM in assay [17] (72 h, read-out: Cell GI50 72h) and approximately 500 nM in assay [17] (72h, read-out: GI50).
